Measurements: US10457662B2, “Substituted amides for treating and preventing cancer” (The Regents of the University of Michigan, priority 2015, dated 2019)
Entries after “also recorded” stand apart in the source; their conditions may differ.

How the values were obtained:
[1] = test system: MiaPaCa-2 xenograft; assay: MiaPaCa-2 xenograft in NOD/SCID mice; assay type: in vivo
Procedure: FIG. 2A-E: QN523 inhibits tumor growth of MiaPaCa-2 xenograft without systemic cytotoxicity. A) Tumor volume of MiaPaCa-2 xenograft of vehicle or QN523 treated mice. MiaPaCa-2 xenograft was established in NOD/SCID mice. When tumor size reached 100 mm^3, mice were randomized into vehicle control group (n=5) or treatment group (n=5). QN523 was given by i.p. injection five times a week at 10 mg/kg from day 1 to day 9, then at 20 mg/kg from day 10 to day 44. B) Body weight of vehicle of QN523 treated mice. Representative micrographs of hematoxylin and eosin (H&E)-stained organ sections. Images were taken with Olympus IX83 inverted microscope at 20× magnification. […] D) Tumor volumes of study continued after data shown in panel A. QN523 was given at 20 mg/kg five times a week until day 44. Three mice from each group were euthanized for tissue analysis. Two mice remained in each group after day 44 and QN523 dose was increased to 30 mg/kg from day 45, then to 40 mg/kg from day 51 to day 60. E) Body weight of engrafted mice was not affected by QN523 treatment at 10-40 mg/kg. Error bars indicate Mean±SEM.
To further evaluate the therapeutic potentials of QN523 in pancreatic cancer, MiaPaCa-2 xenograft were implanted in NOD/SCID mice. When tumor size reached 100 mm^3, mice were randomized to either vehicle control (n=5) or QN523 treatment (n=5) group. QN523 was initially given at 10 mg/kg with intraperitoneal administration.

[2] = test system: MiaPaCa-2 cells; assay: Bru-seq analysis of RNA synthesis in MiaPaCa-2; assay type: cell-based; conditions: 1 μM
Procedure: In order to understand the mechanism of action for QN523 in pancreatic cancer, Bru-seq was performed to evaluate global changes in gene synthesis after QN523 treatment. […] During this time, the cells begin initiating cascade of pharmacological events unique to these compounds. However, cell death pathways will be initiated at later time points well beyond 24 hrs. Therefore, the Bru-seq experiments were performed after 24 hrs drug (1 μM) exposure. Using RPKM>0.5, gene size >300 bp as the cut off values to eliminate background noises, there were totally 8521 expressed genes in the QN523 and DMSO control samples out of around 22,000 genes in the reference genome.
Bru-seq data from QN523 treatment (1 uM, 24 h) and vehicle controls in MiaPaCa-2 was processed by filtering for genes with RPKM>0.5, gene size >300 bp. Expressed genes were then preranked according to fold change comparing to control and subjected to analysis.

## O=C(Nc1cccc2cccnc12)c1cnccn1 [QN523, Pyrazine-2-carboxylic acid quinolin-8-ylamide]
[1]; 10 mg/kg i.p., day 1 to day 9
  delay in tumor growth: no significant delay in tumor growth
[1]; 20 mg/kg i.p. from day 10, p<0.01
  day from which xenograft growth was delayed: ≥ 17 days
[1]; 30 mg/kg from day 45, 40 mg/kg day 51 to 60, two mice
  tumor growth at higher doses: able to delay growth of the tumors
[1]; 10-20 mg/kg i.p., 44 days
  symptoms of gross toxicity (weakness, weight loss, lethargy): No symptoms of gross toxicity
[1]; 10-40 mg/kg
  body weight of engrafted mice: not affected
[1]; after 44-day treatment
  H&E stained organ sections (liver, kidney, heart, lung, spleen, pancreas): did not reveal major histopathological changes
[1]; day 44, 10 then 20 mg/kg i.p. five times a week
  mean tumor volume: 259±38 mm^3
[1]; day 44 versus vehicle control
  inhibition of tumor growth: 80%
[1]; doses as high as 40 mg/kg
  systemic toxicity: no systemic toxicity
[1]; immunohistochemistry of xenograft sections
  Ki67 in tumor tissues: decreased Ki67 levels; also recorded: decreased Ki67 index
[2]; 24 h, of 8521 expressed genes
  number of genes downregulated: 123 genes
  number of genes upregulated more than two fold: 275 genes
[2]; RNA synthesis, 24 h vs control
  Fold Change ATF3: 22.1 fold
  Fold Change AURKAIP1: −2.3 fold
  Fold Change C9orf140: −2.5 fold
  Fold Change C17orf62: −2.5 fold
  Fold Change C19orf60: −2.3 fold
  Fold Change C19orf76: −2.3 fold
  Fold Change CCDC85C: −2.4 fold
  Fold Change CCNG2: 6.6 fold
  Fold Change CD55: 6.3 fold
  Fold Change CXCL3: 11.1 fold
  Fold Change DDIT3: 10.7 fold
  Fold Change DNAJB9: 7.8 fold
  Fold Change FAM129A: 16.0 fold
  Fold Change FASN: −2.4 fold
  Fold Change GABARAPL1: 8.2 fold
  Fold Change HERPUD1: 10.0 fold
  Fold Change HMOX1: 13.6 fold
  Fold Change HPDL: −2.4 fold
  Fold Change HSPA5: 7.9 fold
  Fold Change LOC344887: 16.7 fold
  Fold Change MAP1LC3B: 6.9 fold
  Fold Change MXD3: −2.3 fold
  Fold Change NAT14: −2.4 fold
  Fold Change OSGIN1: 8.0 fold
  Fold Change PRKCDBP: −2.3 fold
  Fold Change RANGRF: −2.3 fold
  Fold Change RNASEH2C: −2.3 fold
  Fold Change RPL23AP32: −2.3 fold
  Fold Change SAT1: 7.2 fold
  Fold Change SCARNA10: −2.4 fold
  Fold Change SEMA6B: −2.4 fold
  Fold Change SLC37A4: −2.3 fold
  Fold Change SLFN5: 10.1 fold
  Fold Change TERC: −2.4 fold
  Fold Change THAP11: −2.5 fold
  Fold Change TRIB3: 14.3 fold
  Fold Change UPP1: 18.4 fold
  Fold Change WIPI1: 15.3 fold
  Fold Change ZDHHC12: −2.4 fold
